Measured values reported in US20260240926A1, “METHOD OF MAKING A PROBIOTIC FERMENTED PRODUCT” (UNIVERSITY OF SOUTH FLORIDA, priority 2023, published 2026).

System: C57BL/6 mice
Experiment: Chemotherapy (5-FU) induced dysbiosis model in C57BL/6 mice
Format: in vivo
Settings: 5-FU alone
Procedure: Based on previous studies, a model of chemotherapy induced dysbiosis in C57BL/6 mice using 5-Fluorouracil (5-FU) chemotherapy was established. 5-FU accelerated body weight loss (FIG. 16A), reduced microbiome diversity (FIG. 16B), increased gut permeability (FIG. 16C), damaged intestinal villi in the ileum (FIG. 16D), and impaired cognitive function (FIG. 16E). […] It was determined where the PFM has more significant protective effects compared to non-fermented probiotics (same four strains suspended in saline, instead of fermented in milk).

cognitive function: impaired
microbiome diversity: reduced
Structure (SMILES): O=c1[nH]cc(F)c(=O)[nH]1 [5-FU, 5-Fluorouracil]
body weight loss: accelerated
intestinal villi in the ileum: damaged
